Counter-ions that a name gives are not always drawn.
Tests used:
[1] = tested on: experimental allergic rhinitis models; assay: experimental allergic rhinitis models; assay type: in vivo; details: for side-effects: compared with expectation; for reduction in the watery secretion: compared with what is typical for anticholinergic agents
[2] = tested on: animal models of asthma and rhinitis; assay: animal models of asthma and rhinitis; details: in vivo
[3] = in vivo, po
water solubility = assay type: physicochemical

Row | water solubility (water solubility) | SMILES | side-effects [1] | reduction in the watery secretion [1] | effectiveness in animal models of asthma and rhinitis [2] | emesis and signs of nausea [3]
1 | – | C[N+]1(C)CCC(OC(=O)C(O)(c2ccccc2)C2CCCC2)C1 (racemic) [glycopyrrolate] | lower side-effects than expected | longer-lasting reduction in the watery secretion | – | –
2 | – | C[N+]1(C)CC[C@@H](OC(=O)[C@](O)(c2ccccc2)C2CCCC2)C1.[Br-] (single isomer, unassigned) [R,R-isomer, R,R-glycopyrrolate] | lower side-effects than expected | longer-lasting reduction in the watery secretion | – | –
3 | – | O=C(Nc1c(Cl)cncc1Cl)C(=O)c1cn(Cc2ccc(F)cc2)c2ccc(O)cc12 [AWD 12-281] | – | – | highly effective | devoid of emesis and signs of nausea
4 | sufficient | CN1CCCC(n2nc(Cc3ccc(Cl)cc3)c3ccccc3c2=O)CC1 (stereo not shown) [azelastine hydrochloride] | – | – | – | –
